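A five-concentration, 48-hour dose response in 96-well plates underlies each endpoint, interpolated linearly between surrounding concentrations. At the GI50, growth is halved. TGI: concentration producing complete growth inhibition.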 Where a SMILES comes first, the peptide text is derived from it. [ ]: non-standard residue; d: D form. ξ: configuration not given here. Pentanoyl(2-O,4-OH,5-Cl) = O=C(O)C(O)CC(O)CCl; Ile(3ξ) = CCC(C)[C@H](N)C(=O)O; NMeV = CN[C@H](C(=O)O)C(C)C; NMeA = CN[C@@H](C)C(=O)O; βAla = NCCC(=O)O
Experiments:
Test in all cases: NCI tumour cell line growth inhibition, 48 h
ACHN renal = system: ACHN renal
HOP-62 NSCLC = system: HOP-62 NSCLC
HS 578T breast = system: HS 578T breast
MCF7 breast = system: MCF7 breast
MDA-MB-435 = system: MDA-MB-435
OVCAR-5 ovarian = system: OVCAR-5 ovarian
SK-MEL-2 melanoma = system: SK-MEL-2 melanoma
SK-MEL-28 melanoma = system: SK-MEL-28 melanoma
SW-620 colon = system: SW-620 colon
T-47D breast = system: T-47D breast

SMILES	GI50 (ACHN renal) [µM]	TGI (ACHN renal) [µM]	GI50 (HOP-62 NSCLC) [µM]	TGI (HOP-62 NSCLC) [µM]	GI50 (HS 578T breast) [µM]	TGI (HS 578T breast) [µM]	GI50 (MCF7 breast) [µM]	TGI (MCF7 breast) [µM]	GI50 (MDA-MB-435) [µM]	TGI (MDA-MB-435) [µM]	GI50 (OVCAR-5 ovarian) [µM]	TGI (OVCAR-5 ovarian) [µM]	GI50 (SK-MEL-2 melanoma) [µM]	TGI (SK-MEL-2 melanoma) [µM]	GI50 (SK-MEL-28 melanoma) [µM]	TGI (SK-MEL-28 melanoma) [µM]	GI50 (SW-620 colon) [µM]	TGI (SW-620 colon) [µM]	GI50 (T-47D breast) [µM]	TGI (T-47D breast) [µM]
N#Cc1nc2cc(Cl)c(Cl)cc2nc1-c1ccc(Cl)cc1	20	47.6	21	41.6	17.1	70.2	37.3	> 100	> 83.4	> 100	> 100	> 100	> 56	> 100	> 92	> 100	> 100	> 100	> 66.1	> 100
O=c1[nH]c(=O)n(Cc2ccc(C34CC5CC(CC(C5)C3)C4)c(O)c2)cc1F	12.5	25.2	14.6	31.4	15	41.7	11.9	30.9	3.67	15.4	16.1	33.4	15.8	39.4	4.62	21.8	13.5	34.2	13.6	44.4
CCC(C)[C@@H]1NC(=O)[C@@H]2CCCN2C(=O)C(CC(O)CCl)OC(=O)CCNC(=O)[C@H](C)N(C)C(=O)[C@H](C(C)C)N(C)C1=O (stereo not given in full) (cyclo([Ile(3ξ)][NMeV][NMeA][βAla][Pentanoyl(2-O,4-OH,5-Cl)]P))	–	> 100	–	> 100	–	> 100	–	> 100	–	> 100	–	> 100	–	1.89	–	> 100	–	> 100	–	> 100
CN1CCN(c2ccc3nc(-c4[nH]ncc4Nc4ncnc5[nH]ccc45)[nH]c3c2)CC1	0.394	7.66	0.381	4.06	0.216	2.03	0.293	11.2	0.303	1.61	0.418	9.19	0.39	1.91	0.309	1.75	0.312	3.47	0.32	> 52.4
C=CCn1c(SCC(=O)Nc2ccc(C(=O)/C=C/c3cc(OC)c(OC)c(OC)c3)cc2)nnc1-c1cc(OC)c(OC)c(OC)c1	4.16	20.6	5.17	37.9	4.66	> 100	1.83	10.5	2.72	10.7	3.97	28.1	14.8	45.3	3.29	32.3	3.37	16	5.44	40.7
CC(C)Cn1cnc2c(N)nc3ccccc3c21	27.9	> 100	22.5	> 64.1	60.8	> 100	29.4	> 100	48.9	> 100	65.4	> 100	41.5	> 100	> 74.9	> 100	41.8	> 100	41.6	> 100
OC(c1ccccc1)c1c(-c2ccccc2)[nH]c(-c2ccccc2)c1C(O)c1ccccc1 (stereo not given)	–	11.9	–	17.5	–	18.9	–	19.1	–	7.73	–	10.8	–	5.18	–	12.1	–	29.1	–	40.4

From PubChem BioAssay (NCI)
